Reference: patent publication US9340590B2 (priority 2011, dated 2016)
Like-named read-outs stand apart in the source and are kept apart here. Positions of bridges follow the written chain, without caps; N, C: chain ends. Residues, ends and D or L forms follow the SMILES beside them.

Legend:
Test in all cases: cell-based
hNav1.3 = hNav1.3 (Homo sapiens, UniProt Q9NY46); details: IonWorks Quattro, read-out: IWQ Use Nav1.3
hNav1.5 = hNav1.5 (Homo sapiens, UniProt Q14524)
hNav1.7 = hNav1.7 (Homo sapiens, UniProt Q15858); format: cell-based
Sequence of hNav1.7 (Q15858 whole entry, looked up): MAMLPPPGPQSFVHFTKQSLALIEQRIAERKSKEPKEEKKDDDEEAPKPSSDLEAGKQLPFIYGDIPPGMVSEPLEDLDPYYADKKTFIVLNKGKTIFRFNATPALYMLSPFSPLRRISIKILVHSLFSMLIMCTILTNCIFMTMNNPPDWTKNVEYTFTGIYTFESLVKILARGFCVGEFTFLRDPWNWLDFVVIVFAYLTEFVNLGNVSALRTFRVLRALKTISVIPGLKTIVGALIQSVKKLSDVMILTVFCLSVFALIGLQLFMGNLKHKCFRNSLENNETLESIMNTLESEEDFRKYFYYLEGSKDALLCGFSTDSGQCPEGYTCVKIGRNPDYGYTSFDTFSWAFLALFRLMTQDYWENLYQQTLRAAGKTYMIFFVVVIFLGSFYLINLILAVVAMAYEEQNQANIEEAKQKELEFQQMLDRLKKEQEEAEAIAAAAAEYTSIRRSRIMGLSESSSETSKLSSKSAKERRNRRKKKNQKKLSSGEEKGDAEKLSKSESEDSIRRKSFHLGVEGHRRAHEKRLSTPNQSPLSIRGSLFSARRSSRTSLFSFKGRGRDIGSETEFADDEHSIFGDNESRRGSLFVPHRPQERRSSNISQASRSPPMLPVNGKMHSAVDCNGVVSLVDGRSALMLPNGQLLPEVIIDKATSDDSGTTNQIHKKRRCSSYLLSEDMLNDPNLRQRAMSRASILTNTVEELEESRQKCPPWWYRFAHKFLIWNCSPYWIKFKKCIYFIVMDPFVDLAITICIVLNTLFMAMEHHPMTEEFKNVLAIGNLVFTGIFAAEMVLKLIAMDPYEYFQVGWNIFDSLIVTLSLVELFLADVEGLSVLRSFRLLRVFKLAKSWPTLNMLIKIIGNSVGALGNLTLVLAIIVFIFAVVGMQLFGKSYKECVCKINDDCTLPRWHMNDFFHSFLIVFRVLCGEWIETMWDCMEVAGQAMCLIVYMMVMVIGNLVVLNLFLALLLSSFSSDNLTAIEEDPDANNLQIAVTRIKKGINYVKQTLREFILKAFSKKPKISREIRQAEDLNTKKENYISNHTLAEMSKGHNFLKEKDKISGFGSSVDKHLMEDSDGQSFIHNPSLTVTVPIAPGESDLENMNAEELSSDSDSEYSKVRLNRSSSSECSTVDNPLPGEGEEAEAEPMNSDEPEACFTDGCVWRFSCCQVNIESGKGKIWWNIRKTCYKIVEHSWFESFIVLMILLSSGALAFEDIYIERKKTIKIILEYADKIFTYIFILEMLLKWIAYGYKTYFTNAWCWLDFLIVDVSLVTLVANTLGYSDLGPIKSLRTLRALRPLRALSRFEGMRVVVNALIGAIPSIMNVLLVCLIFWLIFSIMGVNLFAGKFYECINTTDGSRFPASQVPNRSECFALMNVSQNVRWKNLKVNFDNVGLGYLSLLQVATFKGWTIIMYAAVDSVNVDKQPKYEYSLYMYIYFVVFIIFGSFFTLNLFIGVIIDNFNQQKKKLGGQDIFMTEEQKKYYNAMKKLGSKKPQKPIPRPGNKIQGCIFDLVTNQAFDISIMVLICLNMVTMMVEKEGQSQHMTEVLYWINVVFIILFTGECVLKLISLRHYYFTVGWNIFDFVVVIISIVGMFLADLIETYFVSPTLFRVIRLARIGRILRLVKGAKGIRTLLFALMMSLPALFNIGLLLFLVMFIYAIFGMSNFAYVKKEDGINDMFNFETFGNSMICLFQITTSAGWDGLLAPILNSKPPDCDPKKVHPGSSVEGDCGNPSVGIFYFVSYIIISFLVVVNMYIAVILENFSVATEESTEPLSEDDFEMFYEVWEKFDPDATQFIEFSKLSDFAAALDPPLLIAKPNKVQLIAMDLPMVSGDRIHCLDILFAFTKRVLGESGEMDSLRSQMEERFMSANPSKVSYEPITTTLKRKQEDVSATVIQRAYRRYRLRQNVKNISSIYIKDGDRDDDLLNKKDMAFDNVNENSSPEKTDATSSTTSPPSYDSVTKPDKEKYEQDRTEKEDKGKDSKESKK

[1] = IonWorks Quattro, use-dependent block, hNav1.5, read-out: IWQ Use Nav1.5
[2] = IonWorks Quattro, use-dependent block, hNav1.7, read-out: IWQ Use Nav1.7
[3] = IonWorks Quattro, Use, read-out: IWQ Use Nav1.5
[4] = IonWorks Quattro, Use, read-out: IWQ Use Nav1.7

Sequence of hNav1.3 (Q9NY46 whole entry, looked up): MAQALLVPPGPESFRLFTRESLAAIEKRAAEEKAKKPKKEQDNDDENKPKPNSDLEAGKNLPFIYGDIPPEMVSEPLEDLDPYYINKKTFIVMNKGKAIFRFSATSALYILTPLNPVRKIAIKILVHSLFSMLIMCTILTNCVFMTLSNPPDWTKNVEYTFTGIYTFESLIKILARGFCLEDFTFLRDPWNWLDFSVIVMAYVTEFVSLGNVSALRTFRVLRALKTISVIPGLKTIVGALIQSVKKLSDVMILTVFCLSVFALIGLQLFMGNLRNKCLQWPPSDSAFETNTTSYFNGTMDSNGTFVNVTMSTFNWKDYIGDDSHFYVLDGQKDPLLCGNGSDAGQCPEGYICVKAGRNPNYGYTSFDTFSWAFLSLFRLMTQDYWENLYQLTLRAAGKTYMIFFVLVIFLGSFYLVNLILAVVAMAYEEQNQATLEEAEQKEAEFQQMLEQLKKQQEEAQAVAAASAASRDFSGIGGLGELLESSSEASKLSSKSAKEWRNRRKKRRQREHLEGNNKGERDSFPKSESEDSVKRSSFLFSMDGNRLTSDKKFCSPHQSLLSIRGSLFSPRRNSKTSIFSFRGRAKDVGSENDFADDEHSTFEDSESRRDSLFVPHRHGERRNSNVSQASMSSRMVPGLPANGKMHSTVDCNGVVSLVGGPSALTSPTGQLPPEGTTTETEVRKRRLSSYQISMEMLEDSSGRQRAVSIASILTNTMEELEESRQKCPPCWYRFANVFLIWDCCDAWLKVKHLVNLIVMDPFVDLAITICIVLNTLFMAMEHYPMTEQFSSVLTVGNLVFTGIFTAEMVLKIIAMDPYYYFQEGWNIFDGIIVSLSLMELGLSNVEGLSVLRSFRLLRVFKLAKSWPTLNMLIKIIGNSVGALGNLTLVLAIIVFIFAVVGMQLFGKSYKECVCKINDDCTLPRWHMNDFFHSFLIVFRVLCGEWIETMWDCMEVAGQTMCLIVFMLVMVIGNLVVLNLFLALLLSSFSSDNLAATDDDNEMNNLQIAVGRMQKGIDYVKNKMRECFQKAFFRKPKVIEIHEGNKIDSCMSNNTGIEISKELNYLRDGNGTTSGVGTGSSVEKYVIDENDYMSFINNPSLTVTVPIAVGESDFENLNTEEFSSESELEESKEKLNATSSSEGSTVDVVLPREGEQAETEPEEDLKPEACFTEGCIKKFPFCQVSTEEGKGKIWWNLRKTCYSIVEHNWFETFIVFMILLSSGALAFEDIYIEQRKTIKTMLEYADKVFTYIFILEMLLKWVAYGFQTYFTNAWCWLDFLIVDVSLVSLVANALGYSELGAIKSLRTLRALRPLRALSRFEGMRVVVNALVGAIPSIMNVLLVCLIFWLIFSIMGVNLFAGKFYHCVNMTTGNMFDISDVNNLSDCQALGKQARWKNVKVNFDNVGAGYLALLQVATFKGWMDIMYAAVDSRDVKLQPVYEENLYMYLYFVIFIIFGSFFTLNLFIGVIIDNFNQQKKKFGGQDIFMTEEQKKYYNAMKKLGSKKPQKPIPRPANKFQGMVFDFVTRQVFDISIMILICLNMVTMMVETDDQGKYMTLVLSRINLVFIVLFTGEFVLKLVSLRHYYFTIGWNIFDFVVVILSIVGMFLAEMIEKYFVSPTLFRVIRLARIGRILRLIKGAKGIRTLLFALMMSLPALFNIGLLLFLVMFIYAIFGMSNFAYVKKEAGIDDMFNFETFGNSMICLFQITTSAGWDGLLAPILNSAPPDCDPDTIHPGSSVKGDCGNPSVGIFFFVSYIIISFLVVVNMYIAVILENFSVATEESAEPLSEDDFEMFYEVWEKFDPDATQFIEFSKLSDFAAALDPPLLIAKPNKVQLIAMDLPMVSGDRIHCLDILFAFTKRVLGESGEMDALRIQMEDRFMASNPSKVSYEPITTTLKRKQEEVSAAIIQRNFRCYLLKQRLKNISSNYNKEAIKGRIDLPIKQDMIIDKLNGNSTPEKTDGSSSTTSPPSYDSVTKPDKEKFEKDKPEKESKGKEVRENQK

| Structure (SMILES) | IC50 (hNav1.3; use-dependent block, hNav1.3) [µM] | IC50 (hNav1.5; [1]) [µM] | IC50 (hNav1.7; [2]) [µM] | IC50 (hNav1.3; Use) [µM] | IC50 (hNav1.5; [3]) [µM] | IC50 (hNav1.7; [4]) [µM] | further results |
| --- | --- | --- | --- | --- | --- | --- | --- |
| CC[C@H](C)[C@@H]1NC(=O)[C@@H]2CSSC[C@@H]3NC(=O)[C@H](C(C)C)NC(=O)[C@H](CC(C)C)NC(=O)[C@H](CC(N)=O)NC(=O)[C@@H]4CCCN4C(=O)[C@H](CCCNC(=N)N)NC(=O)[C@H](CSSC[C@H](NC(=O)[C@@H](N)CC(=O)O)C(=O)N[C@@H](CC(C)C)C(=O)NCC(=O)N[C@@H](Cc4ccccc4)C(=O)N[C@@H](CCSC)C(=O)N[C@@H](CCCNC(N)=O)C(=O)N[C@@H](CCCCN)C(=O)N2)NC(=O)[C@H](CSSC[C@@H](C(=O)N[C@@H](CCCCN)C(=O)N[C@@H](Cc2ccc(O)cc2)C(=O)N[C@H](C(=O)N[C@@H](Cc2ccccc2)C(N)=O)C(C)C)NC(=O)[C@H](Cc2c[nH]c4ccccc24)NC(=O)[C@H](CCCCN)NC(=O)[C@H](Cc2c[nH]cn2)NC(=O)[C@H]([C@@H](C)O)NC(=O)[C@H](CCCNC(=N)N)NC(=O)[C@H](CO)NC3=O)NC(=O)[C@H](CCCCN)NC(=O)[C@H](CC(=O)O)NC(=O)[C@H](CC(N)=O)NC(=O)[C@H](CC(=O)O)NC(=O)[C@@H]2CCCN2C1=O [[Cit7]GpTx-1(1-34)] | 0.56 | 14.4 | 0.63 | – | – | – | – |
| CC[C@H](C)[C@@H]1NC(=O)[C@@H]2CSSC[C@@H]3NC(=O)[C@H](C(C)C)NC(=O)[C@H](CC(C)C)NC(=O)[C@H](CC(N)=O)NC(=O)[C@@H]4CCCN4C(=O)[C@H](CCCNC(=N)N)NC(=O)[C@H](CSSC[C@H](NC(=O)[C@@H](N)CC(=O)O)C(=O)N[C@@H](CC(C)C)C(=O)NCC(=O)N[C@@H](Cc4ccccc4)C(=O)N[C@@H](CCSC)C(=O)N[C@@H](CCCCN)C(=O)N[C@@H](CCCCN)C(=O)N2)NC(=O)[C@H](CSSC[C@@H](C(=O)N[C@@H](CCCCN)C(=O)N[C@@H](Cc2ccc(O)cc2)C(=O)N[C@H](C(=O)N[C@@H](Cc2ccccc2)C(N)=O)C(C)C)NC(=O)[C@H](Cc2c[nH]c4ccccc24)NC(=O)[C@H](CCCCN)NC(=O)[C@H](Cc2c[nH]cn2)NC(=O)[C@H]([C@@H](C)O)NC(=O)[C@H](CCCNC(=N)N)NC(=O)[C@H](CO)NC3=O)NC(=O)[C@H](CCCCN)NC(=O)[C@H](CC(=O)O)NC(=O)[C@H](CC(N)=O)NC(=O)[C@H](CC(=O)O)NC(=O)[C@@H]2CCCN2C1=O [[Lys7]GpTx-1(1-34)] (H-DCLGFMKKCIPDNDKCCRPNLVCSRTHKWCKYVF-NH2; disulfide 2-17, 9-23, 16-30) | 0.47 | 23.3 | 0.53 | – | – | – | – |
| CC[C@H](C)[C@@H]1NC(=O)[C@@H]2CSSC[C@@H]3NC(=O)[C@H](C(C)C)NC(=O)[C@H](CC(C)C)NC(=O)[C@H](CC(N)=O)NC(=O)[C@@H]4CCCN4C(=O)[C@H](CCCNC(=N)N)NC(=O)[C@H](CSSC[C@H](NC(=O)[C@@H](N)CC(=O)O)C(=O)N[C@@H](CC(C)C)C(=O)NCC(=O)N[C@@H](Cc4ccccc4)C(=O)N[C@@H](CCSC)C(=O)N[C@@H](CCCNC(=N)N)C(=O)N[C@@H](CCCCN)C(=O)N2)NC(=O)[C@H](CSSC[C@@H](C(=O)N[C@@H](CCCCN)C(=O)N[C@@H](Cc2ccc(O)cc2)C(=O)N[C@H](C(=O)N[C@@H](Cc2ccccc2)C(N)=O)C(C)C)NC(=O)[C@H](Cc2c[nH]c4ccccc24)NC(=O)[C@H](CCCCN)NC(=O)[C@H](Cc2cnc[nH]2)NC(=O)[C@H]([C@@H](C)O)NC(=O)[C@H](CCCNC(=N)N)NC(=O)[C@H](CO)NC3=O)NC(=O)[C@H](CCCCN)NC(=O)[C@H](CC(=O)O)NC(=O)[C@H](C)NC(=O)[C@H](CC(=O)O)NC(=O)[C@@H]2CCCN2C1=O [compound 5] (H-DCLGFMRKCIPDADKCCRPNLVCSRTHKWCKYVF-NH2; disulfide 2-17, 9-23, 16-30) | – | – | – | 0.16 | 8.15 | 0.17 | – |
| CC[C@H](C)[C@@H]1NC(=O)[C@@H]2CSSC[C@@H]3NC(=O)[C@H](C(C)C)NC(=O)[C@H](CC(C)C)NC(=O)[C@H](CC(N)=O)NC(=O)[C@@H]4CCCN4C(=O)[C@H](CCCNC(=N)N)NC(=O)[C@H](CSSC[C@H](NC(=O)[C@@H](N)CC(=O)O)C(=O)N[C@@H](CC(C)C)C(=O)NCC(=O)N[C@@H](Cc4ccccc4)C(=O)N[C@@H](CCSC)C(=O)N[C@@H](CCCNC(=N)N)C(=O)N[C@@H](CCCCN)C(=O)N2)NC(=O)[C@H](CSSC[C@@H](C(=O)N[C@@H](CCCCN)C(=O)N[C@@H](Cc2ccc(O)cc2)C(=O)N[C@H](C(=O)N[C@@H](Cc2ccccc2)C(N)=O)C(C)C)NC(=O)[C@H](Cc2c[nH]c4ccccc24)NC(=O)[C@H](CCCCN)NC(=O)[C@H](Cc2cnc[nH]2)NC(=O)[C@H]([C@@H](C)O)NC(=O)[C@H](CCCNC(=N)N)NC(=O)[C@H](CO)NC3=O)NC(=O)[C@H](C)NC(=O)[C@H](CC(=O)O)NC(=O)[C@H](CC(N)=O)NC(=O)[C@H](CC(=O)O)NC(=O)[C@@H]2CCCN2C1=O [compound 6] (H-DCLGFMRKCIPDNDACCRPNLVCSRTHKWCKYVF-NH2; disulfide 2-17, 9-23, 16-30) | – | – | – | 0.19 | 9.64 | 0.22 | – |
| CC[C@H](C)[C@@H]1NC(=O)[C@@H]2CSSC[C@@H]3NC(=O)[C@H](C(C)C)NC(=O)[C@H](CC(C)C)NC(=O)[C@H](CC(N)=O)NC(=O)[C@@H]4CCCN4C(=O)[C@H](CCCNC(=N)N)NC(=O)[C@H](CSSC[C@H](NC(=O)[C@@H](N)CC(=O)O)C(=O)N[C@@H](CC(C)C)C(=O)NCC(=O)N[C@@H](Cc4ccccc4)C(=O)N[C@@H](CCSC)C(=O)N[C@@H](CCCNC(=N)N)C(=O)N[C@@H](CCCCN)C(=O)N2)NC(=O)[C@H](CSSC[C@@H](C(=O)N[C@@H](CCCCN)C(=O)N[C@@H](Cc2ccc(O)cc2)C(=O)N[C@H](C(=O)N[C@@H](Cc2ccccc2)C(N)=O)C(C)C)NC(=O)[C@H](Cc2c[nH]c4ccccc24)NC(=O)[C@H](CCCCN)NC(=O)[C@H](Cc2cnc[nH]2)NC(=O)[C@H]([C@@H](C)O)NC(=O)[C@H](C)NC(=O)[C@H](CO)NC3=O)NC(=O)[C@H](CCCCN)NC(=O)[C@H](CC(=O)O)NC(=O)[C@H](CC(N)=O)NC(=O)[C@H](CC(=O)O)NC(=O)[C@@H]2CCCN2C1=O [compound 9] (H-DCLGFMRKCIPDNDKCCRPNLVCSATHKWCKYVF-NH2; disulfide 2-17, 9-23, 16-30) | – | – | – | 0.84 | 18.8 | – | IC50 (hNav1.7): 0.3 µM |
| CC[C@H](C)[C@@H]1NC(=O)[C@@H]2CSSC[C@@H]3NC(=O)[C@H](C(C)C)NC(=O)[C@H](CC(C)C)NC(=O)[C@H](CC(N)=O)NC(=O)[C@@H]4CCCN4C(=O)[C@H](CCCNC(=N)N)NC(=O)[C@H](CSSC[C@H](NC(=O)[C@@H](N)CC(=O)O)C(=O)N[C@@H](CC(C)C)C(=O)NCC(=O)N[C@@H](Cc4ccccc4)C(=O)N[C@@H](CCSC)C(=O)N[C@@H](CCCNC(=N)N)C(=O)N[C@@H](CCCCN)C(=O)N2)NC(=O)[C@H](CSSC[C@@H](C(=O)N[C@@H](CCCCN)C(=O)N[C@@H](Cc2ccc(O)cc2)C(=O)N[C@H](C(=O)N[C@@H](Cc2ccccc2)C(N)=O)C(C)C)NC(=O)[C@H](Cc2c[nH]c4ccccc24)NC(=O)[C@H](CCCCN)NC(=O)[C@H](Cc2cnc[nH]2)NC(=O)[C@H](C)NC(=O)[C@H](CCCNC(=N)N)NC(=O)[C@H](CO)NC3=O)NC(=O)[C@H](CCCCN)NC(=O)[C@H](CC(=O)O)NC(=O)[C@H](CC(N)=O)NC(=O)[C@H](CC(=O)O)NC(=O)[C@@H]2CCCN2C1=O [compound 10] (H-DCLGFMRKCIPDNDKCCRPNLVCSRAHKWCKYVF-NH2; disulfide 2-17, 9-23, 16-30) | – | – | – | – | – | – | IC50 (hNav1.3; Table 22, use, […]): 0.17 µM; IC50 (hNav1.5; IWQ Use Nav1.5 (μM)): 10.5 µM; IC50 (hNav1.7; Table 22, IonWorks Quattro, use, […], read-out: IWQ Use Nav1.7): 0.25 µM |
